# US9643970B2, “Substituted imidazo [1,5-a]pyrazines as PDE9 inhibitors” (H Lundbeck A/S, priority 2012, dated 2017)
# Read-outs that look alike come from different tables or passages of the source.
# Molecular target: PDE9 (Homo sapiens, UniProt O76083)
# Test: PDE9 inhibition assay
# Type: biochemical
# Protocol: Reactions are initiated by addition of the cyclic nucleotide substrate, and reactions are allowed to proceed for one hr at room temperature before being terminated through mixing with 15 uL 8 mg/mL yttrium silicate SPA beads (Amersham). […] IC50 values were calculated by non linear regression using XLfit (IDBS).
# [1] = SPA assay, 10 nM 3H-cAMP, 1 hour incubation, read-out: IC50
# PDE9, sequence (O76083 whole entry): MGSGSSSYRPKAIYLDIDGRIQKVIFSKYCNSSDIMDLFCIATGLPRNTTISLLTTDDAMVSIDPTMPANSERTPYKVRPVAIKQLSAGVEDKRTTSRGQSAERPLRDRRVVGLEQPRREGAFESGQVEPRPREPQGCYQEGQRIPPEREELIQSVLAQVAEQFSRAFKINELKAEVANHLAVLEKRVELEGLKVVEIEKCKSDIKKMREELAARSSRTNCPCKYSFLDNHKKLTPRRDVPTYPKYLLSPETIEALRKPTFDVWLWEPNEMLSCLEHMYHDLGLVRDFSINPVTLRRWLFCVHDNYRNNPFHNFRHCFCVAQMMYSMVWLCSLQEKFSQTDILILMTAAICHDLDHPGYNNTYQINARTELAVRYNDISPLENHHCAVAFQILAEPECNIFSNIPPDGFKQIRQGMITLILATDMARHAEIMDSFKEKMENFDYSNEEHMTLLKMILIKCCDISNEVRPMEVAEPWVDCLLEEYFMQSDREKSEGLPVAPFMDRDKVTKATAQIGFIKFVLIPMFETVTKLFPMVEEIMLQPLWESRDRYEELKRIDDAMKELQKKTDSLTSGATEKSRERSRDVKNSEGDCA
IC50 [nM],IC50 [1] [nM],Compound
–,16,"O=c1[nH]c(CN2CC(Oc3ccc(OC(F)(F)F)cc3)C2)cn2c(-c3ccc(F)cc3)ncc12 [Compound 74, 3-(4-fluorophenyl)-6-[[3-[4-(trifluoromethoxy)phenoxy]azetidin-1-yl]methyl]-7h-imidazo[1,5-a]pyrazin-8-one]"
115,–,"O=c1[nH]c(CN2CC(Oc3ccc(F)cc3)C2)cn2c(C3CCOCC3)ncc12 [Compound 75, 6-[[3-(4-fluorophenoxy)azetidin-1-yl]methyl]-3-tetrahydropyran-4-yl-7h-imidazo[1,5-a]pyrazin-8-one]"
–,33,"O=c1[nH]c(CN2CC(c3ccc(F)cc3)C2)cn2c(-c3ccc(F)cc3)ncc12 [Compound 76, 3-(4-fluorophenyl)-6-[[3-(4-fluorophenyl)azetidin-1-yl]methyl]-7h-imidazo[1,5-a]pyrazin-8-one]"
–,4,"O=c1[nH]c(CN2CC(c3ccc(C(F)(F)F)cn3)C2)cn2c(-c3ccc(F)cc3)ncc12 [Compound 77, 3-(4-fluorophenyl)-6-[[3-[5-(trifluoromethyl)-2-pyridyl]azetidin-1-yl]methyl]-7h-imidazo[1,5-a]pyrazin-8-one]"
–,6,"CCc1ccc(C2CN(Cc3cn4c(C5CCOCC5)ncc4c(=O)[nH]3)C2)cc1 [Compound 78, 6-[[3-(4-ethylphenyl)azetidin-1-yl]methyl]-3-tetrahydropyran-4-yl-7h-imidazo[1,5-a]pyrazin-8-one]"
–,23,"CC1CN(Cc2ccc(C(F)(F)F)nc2)CC1c1cn2c(C3CCOCC3)ncc2c(=O)[nH]1 (stereo not drawn) [Compound 79, 6-[4-methyl-1-[[6-(trifluoromethyl)-3-pyridyl]methyl]pyrrolidin-3-yl]-3-tetrahydropyran-4-yl-7h-imidazo[1,5-a]pyrazin-8-one]"
–,18,"N#Cc1ccc(OC2CN(Cc3cn4c(C5CCOCC5)ncc4c(=O)[nH]3)C2)cc1 [Compound 80, 4-[1-[(8-oxo-3-tetrahydropyran-4-yl-7h-imidazo[1,5-a]pyrazin-6-yl)methyl]azetidin-3-yl]oxybenzonitrile]"
–,19,"CC1CN(Cc2ccccn2)CC1c1cn2c(C3CCOCC3)ncc2c(=O)[nH]1 (stereo not drawn) [Compound 81, 6-[4-methyl-1-(2-pyridylmethyl)pyrrolidin-3-yl]-3-tetrahydropyran-4-yl-7h-imidazo[1,5-a]pyrazin-8-one]"
–,14,"O=c1[nH]c(CN2CC(Oc3ccncc3)C2)cn2c(C3CCOCC3)ncc12 [Compound 82, 6-[[3-(4-pyridyloxy)azetidin-1-yl]methyl]-3-tetrahydropyran-4-yl-7h-imidazo[1,5-a]pyrazin-8-one]"
–,110,"O=c1[nH]c(CN2CCC(Oc3ncccn3)C2)cn2c(C3CCOCC3)ncc12 (stereo not drawn) [Compound 84, 6-[(3-pyrimidin-2-yloxypyrrolidin-1-yl)methyl]-3-tetrahydropyran-4-yl-7h-imidazo[1,5-a]pyrazin-8-one]"
–,140,"O=c1[nH]c(CN2CCC(Oc3ccccc3)C2)cn2c(-c3ccc(F)cc3)ncc12 (stereo not drawn) [Compound 85, 3-(4-fluorophenyl)-6-[(3-phenoxypyrrolidin-1-yl)methyl]-7h-imidazo[1,5-a]pyrazin-8-one]"
–,233,"O=c1[nH]c(CN2CCC(Oc3ncccn3)C2)cn2c(-c3ccc(F)cc3)ncc12 (stereo not drawn) [Compound 86, 3-(4-fluorophenyl)-6-[(3-pyrimidin-2-yloxypyrrolidin-1-yl)methyl]-7h-imidazo[1,5-a]pyrazin-8-one]"
3,–,"O=c1[nH]c(CN2CC(Oc3cccnc3)C2)cn2c(-c3ccc(F)cc3)ncc12 [Compound 88, 3-(4-fluorophenyl)-6-[[3-(3-pyridyloxy)azetidin-1-yl]methyl]-7h-imidazo[1,5-a]pyrazin-8-one]"
–,7,"CC1CN(Cc2ccc(F)cc2)CC1c1cn2c(C3CCOCC3)ncc2c(=O)[nH]1 (stereo not drawn) [Compound 89, 6-[1-[(4-fluorophenyl)methyl]-4-methyl-pyrrolidin-3-yl]-3-tetrahydropyran-4-yl-7h-imidazo[1,5-a]pyrazin-8-one]"
–,19,"CC1CN(Cc2ncccn2)CC1c1cn2c(C3CCOCC3)ncc2c(=O)[nH]1 (stereo not drawn) [Compound 90, 6-[4-methyl-1-(pyrimidin-2-ylmethyl)pyrrolidin-3-yl]-3-tetrahydropyran-4-yl-7h-imidazo[1,5-a]pyrazin-8-one]"
–,46,"CC(c1cn2c(C3CCOCC3)ncc2c(=O)[nH]1)N1CC(c2ncccn2)C1 (stereo not drawn) [Compound 91, 6-[1-(3-pyrimidin-2-ylazetidin-1-yl)ethyl]-3-tetrahydropyran-4-yl-7h-imidazo[1,5-a]pyrazin-8-one]"
76,–,"N#Cc1ccc(OC2CN(Cc3cn4c(-c5ccc(F)cc5)ncc4c(=O)[nH]3)C2)cc1 [Compound 92, 4-[1-[[3-(4-fluorophenyl)-8-oxo-7h-imidazo[1,5-a]pyrazin-6-yl]methyl]azetidin-3-yl]oxybenzonitrile]"

# Further lines, the compound ahead of its results:
Compound,IC50 [nM],IC50 [1] [nM]
"O=c1[nH]c(CN2CC(OCc3ccccc3)C2)cn2c(C3CCCC3)ncc12 [Compound 56, 6-[(3-benzyloxyazetidin-1-yl)methyl]-3-cyclopentyl-7h-imidazo[1,5-a]pyrazin-8-one]",50,–
"CC(C)OC1CN(Cc2cn3c(C4CCCC4)ncc3c(=O)[nH]2)C1 [Compound 57, 3-cyclopentyl-6-[(3-isopropoxyazetidin-1-yl)methyl]-7h-imidazo[1,5-a]pyrazin-8-one]",17,–
"CC(C)COC1CN(Cc2cn3c(C4CCCC4)ncc3c(=O)[nH]2)C1 [Compound 58, 3-cyclopentyl-6-[(3-isobutoxyazetidin-1-yl)methyl]-7h-imidazo[1,5-a]pyrazin-8-one]",4,–
"CC(c1cn2c(C3CCCC3)ncc2c(=O)[nH]1)N1CC(c2ccc(N(C)C)cc2)C1 (stereo not drawn) [Compound 59, 3-cyclopentyl-6-[1-[3-(4-dimethylaminophenyl)azetidin-1-yl]ethyl]-7h-imidazo[1,5-a]pyrazin-8-one]",57,–
"O=c1[nH]c(CN2CC(Oc3cccc(F)n3)C2)cn2c(-c3ccc(F)cc3)ncc12 [Compound 60, 3-(4-fluorophenyl)-6-[[3-[(6-fluoro-2-pyridyl)oxy]azetidin-1-yl]methyl]-7h-imidazo[1,5-a]pyrazin-8-one]",–,164
"O=c1[nH]c(CN2CC(c3ccccn3)C2)cn2c(-c3ccc(F)cc3)ncc12 [Compound 61, 3-(4-fluorophenyl)-6-[[3-(2-pyridyl)azetidin-1-yl]methyl]-7h-imidazo[1,5-a]pyrazin-8-one]",79,–
"O=c1[nH]c(CN2CC(c3ccccn3)C2)cn2c(C3CCOCC3)ncc12 [Compound 62, 6-[[3-(2-pyridyl)azetidin-1-yl]methyl]-3-tetrahydropyran-4-yl-7h-imidazo[1,5-a]pyrazin-8-one]",78,–
"O=c1[nH]c(CN2CC(Oc3ccc(F)cc3)C2)cn2c(-c3ccc(F)cc3)ncc12 [Compound 63, 6-[[3-(4-fluorophenoxy)azetidin-1-yl]methyl]-3-(4-fluorophenyl)-7h-imidazo[1,5-a]pyrazin-8-one]",–,13
"O=c1[nH]c(CN2CC(Oc3ccc(OC(F)(F)F)cc3)C2)cn2c(C3CCOCC3)ncc12 [Compound 64, 3-tetrahydropyran-4-yl-6-[[3-[4-(trifluoromethoxy)phenoxy]azetidin-1-yl]methyl]-7h-imidazo[1,5-a]pyrazin-8-one]",–,13
"O=c1[nH]c(CN2CC(Oc3cccc(F)n3)C2)cn2c(C3CCOCC3)ncc12 [Compound 65, 6-[[3-[(6-fluoro-2-pyridyl)oxy]azetidin-1-yl]methyl]-3-tetrahydropyran-4-yl-7h-imidazo[1,5-a]pyrazin-8-one]",–,91
"O=c1[nH]c(CN2CCC(Nc3ccccc3)C2)cn2c(C3CCOCC3)ncc12 (stereo not drawn) [Compound 66, 6-[(3-anilinopyrrolidin-1-yl)methyl]-3-tetrahydropyran-4-yl-7h-imidazo[1,5-a]pyrazin-8-one]",–,15
"O=c1[nH]c(CN2CC(OCc3ccccc3)C2)cn2c(C3CCOCC3)ncc12 [Compound 67, 6-[(3-benzyloxyazetidin-1-yl)methyl]-3-tetrahydropyran-4-yl-7h-imidazo[1,5-a]pyrazin-8-one]",–,20
"O=c1[nH]c(CN2CC(c3ccccc3)C2)cn2c(C3CCOCC3)ncc12 [Compound 68, 6-[(3-phenylazetidin-1-yl)methyl]-3-tetrahydropyran-4-yl-7h-imidazo[1,5-a]pyrazin-8-one]",8,–
"COc1ccc(C2CN(Cc3cn4c(C5CCOCC5)ncc4c(=O)[nH]3)C2)cc1 [Compound 69, 6-[[3-(4-methoxyphenyl)azetidin-1-yl]methyl]-3-tetrahydropyran-4-yl-7h-imidazo[1,5-a]pyrazin-8-one]",30,–
"O=c1[nH]c(CN2CC(c3ccc(C(F)(F)F)cn3)C2)cn2c(C3CCOCC3)ncc12 [Compound 70, 3-tetrahydropyran-4-yl-6-[[3-[5-(trifluoromethyl)-2-pyridyl]azetidin-1-yl]methyl]-7h-imidazo[1,5-a]pyrazin-8-one]",10,–
"O=c1[nH]c(CN2CC(Oc3cccc(F)c3)C2)cn2c(C3CCOCC3)ncc12 [Compound 71, 6-[[3-(3-fluorophenoxy)azetidin-1-yl]methyl]-3-tetrahydropyran-4-yl-7h-imidazo[1,5-a]pyrazin-8-one]",7,–
"O=c1[nH]c(CN2CC(Oc3cnc4ccccc4n3)C2)cn2c(C3CCOCC3)ncc12 [Compound 72, 6-[(3-quinoxalin-2-yloxyazetidin-1-yl)methyl]-3-tetrahydropyran-4-yl-7h-imidazo[1,5-a]pyrazin-8-one]",–,139
"O=c1[nH]c(CN2CC(Oc3ccccc3)C2)cn2c(-c3ccc(F)cc3)ncc12 [Compound 73, 3-(4-fluorophenyl)-6-[(3-phenoxyazetidin-1-yl)methyl]-7h-imidazo[1,5-a]pyrazin-8-one]",–,177
"O=c1[nH]c(CN2CC(Oc3ccncc3)C2)cn2c(-c3ccc(F)cc3)ncc12 [Compound 87, 3-(4-fluorophenyl)-6-[[3-(4-pyridyloxy)azetidin-1-yl]methyl]-7h-imidazo[1,5-a]pyrazin-8-one]",–,42
